# Earlier results, collected in patent US8273371B2, “Crystalline mesoporous oxide based materials useful for the fixation and controlled release of drugs” (priority 2003, dated 2012).
# “And” between values parts separate entries of the source, which are not always exact repeats. Equal entries are not always repeated.
# Experiments:
# [1] = capsules with granulate of drug, surfactants, cyclodextrin, Avicel PH 101 and Primojel
# [2] = ibuprofen loaded on mesoporous oxide material
# [3] = from 50° C. to 130° C.
# [4] = not given; remark: listed apart in the source
structure (smiles),measurement,setting,value
CC(C)(C)c1ccc(C(O)CCCN2CCC(C(O)(c3ccccc3)c3ccccc3)CC2)cc1 (centres unmarked) [terfenadine],water-solubility,in water,less than 0.01 mg/ml
same,drug release within 45 minutes,[1],90%
CC(C)Cc1ccc(C(C)C(=O)O)cc1 (centres unmarked) [ibuprofen],drug release after 20 hours,[2]; after 20 hours,60%
same,drug release after 24 hours,[2]; after 24 hours,55% and 68%
same,maximum release at the third day,[2]; third day,80%
CC/C(=C(/CC)c1ccc(O)cc1)c1ccc(O)cc1 [diethylstilbestrol],solubility in water,,virtually insoluble in water
CCC(C)n1ncn(-c2ccc(N3CCN(c4ccc(OCC5COC(Cn6cncn6)(c6ccc(Cl)cc6Cl)O5)cc4)CC3)cc2)c1=O (centres unmarked) [itraconazole],solubility in supercritical carbon dioxide,[3],relatively poor
"CS(=O)(=O)c1ccc([C@@H](O)[C@@H](CF)NC(=O)C(Cl)Cl)cc1 [florfenicol, D-(threo)-1-p-methylsulfonyl phenyl-2-dichloroacetamido-3-fluoro-1-propanol]",oral bioavailability,[4],good oral bioavailability
